# Tests used:
# A-549 = test: cells; details: Homo sapiens, A549, 48 h; for GI50: read-out: GI50 A549; for CC50: read-out: LC50 A549; for IC (TGI): read-out: TGI A549
# In short: (§1)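 Colorimetric SRB read (490 nm) on triplicate wells after 48 h at 37 °C, 5% CO2. Dose range 10 to 10^−8 μg/ml; 5×10^3 cells/well pre-attached 18 h.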
# HT-29 = test: cells; details: Homo sapiens, HT-29, 48 h; for GI50: read-out: GI50 HT29; for CC50: read-out: LC50 HT29; for IC (TGI): read-out: TGI HT29
# In short: as §1
# LoVo = test: cells; details: Homo sapiens, LoVo, 48 h; for GI50: read-out: GI50 LOVO; for CC50: read-out: LC50 LOVO; for IC (TGI): read-out: TGI LOVO
# In short: as §1
# SK-BR-3 = test: Inhibition of cells growth by colorimetric assay (SRB); details: Homo sapiens, SK-BR-3, 48 h; for GI50: read-out: GI50 SK-BR3; for CC50: read-out: LC50 SK-BR3; for IC (TGI): read-out: TGI SK-BR3
# In short: as §1
# SK-MEL-28 = test: as above; details: Homo sapiens, SK-MEL-28, 48 h; for GI50: read-out: GI50 MEL-28; for CC50: read-out: LC50 MEL-28; for IC (TGI): read-out: TGI MEL-28
# In short: as §1
# LNCaP = test: as above; details: Homo sapiens, LNCaP, 48 h; for GI50: read-out: GI50 LNCAP; for CC50: read-out: LC50 LNCAP; for IC (TGI): read-out: TGI LNCAP
# In short: as §1
# DU-145 = test: as above; details: Homo sapiens, DU-145, 48 h; for GI50: read-out: GI50 DU145; for CC50: read-out: LC50 DU145; for IC (TGI): read-out: TGI DU145
# In short: as §1
# PANC-1 = test: as above; details: Homo sapiens, PANC-1, 48 h; for GI50: read-out: GI50 PANC-1; for CC50: read-out: LC50 PANC-1; for IC (TGI): read-out: TGI PANC-1
# In short: as §1
# IGROV-ET = test: as above; details: Homo sapiens, 48 h; for GI50: read-out: GI50 IGROV-ET; for CC50: read-out: LC50 IGROV-ET; for IC (TGI): read-out: TGI IGROV-ET
# In short: as §1
# LoVo-Dox = test: as above; details: Homo sapiens, 48 h; for GI50: read-out: GI50 LOVO-DOX; for CC50: read-out: LC50 LOVO-DOX; for IC (TGI): read-out: TGI LOVO-DOX
# In short: as §1
# IGROV-1 = test: as above; details: Homo sapiens, IGROV-1, 48 h; for GI50: read-out: GI50 IGROV; for CC50: read-out: LC50 IGROV; for IC (TGI): read-out: TGI IGROV
# In short: as §1
# HeLa = test: as above; details: Homo sapiens, HeLa, 48 h; for GI50: read-out: GI50 HELA; for CC50: read-out: LC50 HELA; for IC (TGI): read-out: TGI HELA
# In short: as §1
# K-562 = test: as above; details: Homo sapiens, K562, 48 h; for GI50: read-out: GI50 K562; for CC50: read-out: LC50 K562; for IC (TGI): read-out: TGI K562
# In short: as §1
# HeLa-APL = test: as above; details: Homo sapiens, 48 h; for GI50: read-out: GI50 HELA-APL; for CC50: read-out: LC50 HELA-APL; for IC (TGI): read-out: TGI HELA-APL
# In short: as §1
structure (smiles),measurement,setting,value
C=CCN1[C@@H]2c3c(cc(C)c(OC)c3O)C[C@H]1[C@H](C#N)N1C2[C@@H]2SCC(NC(=O)C(F)(F)F)C(=O)OC[C@H]1c1c3c(c(C)c(OC(C)=O)c12)OCO3 (stereo partly drawn) [compound 25],GI50,A-549,927 nM
same,CC50,A-549,11.5 µM
same,IC (TGI),A-549,3.45 µM
same,GI50,HT-29,1640 nM
same,CC50,HT-29,13.9 µM
same,IC (TGI),HT-29,8.57 µM
same,GI50,LoVo,938 nM
same,CC50,LoVo,9.27 µM
same,IC (TGI),LoVo,3.16 µM
same,GI50,SK-BR-3,555 nM
same,CC50,SK-BR-3,8.64 µM
same,IC (TGI),SK-BR-3,1.06 µM
same,GI50,SK-MEL-28,632 nM
same,CC50,SK-MEL-28,5650 nM
same,IC (TGI),SK-MEL-28,1.77 µM
same,GI50,LNCaP,323 nM
same,CC50,LNCaP,2550 nM
same,IC (TGI),LNCaP,0.757 µM
same,GI50,DU-145,861 nM
same,CC50,DU-145,6.57 µM
same,IC (TGI),DU-145,2.2 µM
same,GI50,PANC-1,1370 nM
same,CC50,PANC-1,11 µM
same,IC (TGI),PANC-1,3.9 µM
same,GI50,IGROV-ET,1610 nM
same,CC50,IGROV-ET,12.1 µM
same,IC (TGI),IGROV-ET,4.41 µM
same,GI50,LoVo-Dox,904 nM
same,CC50,LoVo-Dox,13.9 µM
same,IC (TGI),LoVo-Dox,3.77 µM
same,GI50,IGROV-1,660 nM
same,CC50,IGROV-1,8.01 µM
same,IC (TGI),IGROV-1,1.43 µM
same,GI50,HeLa,1500 nM
same,CC50,HeLa,8.11 µM
same,IC (TGI),HeLa,3.48 µM
same,GI50,K-562,316 nM
same,CC50,K-562,3.78 µM
same,IC (TGI),K-562,0.775 µM
same,GI50,HeLa-APL,939 nM
same,CC50,HeLa-APL,7.69 µM
same,IC (TGI),HeLa-APL,2.78 µM
COc1c(C)cc2c(c1O)[C@H]1N[C@@H](C2)[C@H](C#N)N2C1[C@@H]1SCC(NC(C)=O)C(=O)OC[C@H]2c2c3c(c(C)c(OC(C)=O)c21)OCO3 (stereo partly drawn) [compound 30],GI50,A-549,3.47 nM
same,CC50,A-549,0.089 µM
same,IC (TGI),A-549,0.0105 µM
same,GI50,HT-29,2.03 nM
same,CC50,HT-29,15.4 µM
same,IC (TGI),HT-29,0.0135 µM
same,GI50,LoVo,2 nM
same,CC50,LoVo,15.4 µM
same,IC (TGI),LoVo,0.00807 µM
same,GI50,SK-BR-3,0.527 nM
same,CC50,SK-BR-3,0.267 µM
same,IC (TGI),SK-BR-3,0.00229 µM
same,GI50,SK-MEL-28,1.09 nM
same,CC50,SK-MEL-28,10.7 nM
same,IC (TGI),SK-MEL-28,0.00366 µM
same,GI50,LNCaP,96.8 nM
same,CC50,LNCaP,147 nM
same,IC (TGI),LNCaP,0.12 µM
same,GI50,DU-145,2.63 nM
same,CC50,DU-145,14.1 µM
same,IC (TGI),DU-145,0.00744 µM
same,GI50,PANC-1,2.89 nM
same,CC50,PANC-1,15.4 µM
same,IC (TGI),PANC-1,0.0155 µM
same,GI50,IGROV-ET,25.4 nM
same,CC50,IGROV-ET,15.4 µM
same,IC (TGI),IGROV-ET,0.0824 µM
same,GI50,LoVo-Dox,207 nM
same,CC50,LoVo-Dox,15.4 µM
same,IC (TGI),LoVo-Dox,2.07 µM
same,GI50,IGROV-1,0.695 nM
same,CC50,IGROV-1,0.231 µM
same,IC (TGI),IGROV-1,0.00332 µM
same,GI50,HeLa,1.15 nM
same,CC50,HeLa,0.0217 µM
same,IC (TGI),HeLa,0.00453 µM
same,GI50,K-562,0.312 nM
same,CC50,K-562,9.51 µM
same,IC (TGI),K-562,0.00249 µM
same,GI50,HeLa-APL,1.86 nM
same,CC50,HeLa-APL,0.0195 µM
same,IC (TGI),HeLa-APL,0.0055 µM

# Source: patent publication US7767659B2, “Synthesis of naturally occurring ecteinascidins and related compounds” (Pharma Mar, S.A., priority 2002, dated 2010)
